# Source: PMC7070575, “Novel Blood–Brain Barrier Shuttle Peptides Discovered through the Phage Display Method” (Molecules, 2020)
# Ends that are not written are not given here.
# How the values were obtained:
# [1] = test system: primary rat in vitro BBB model (primary rat endothelial cells co-cultured with primary rat glial cells); conditions: for permeability coefficient (Pe) through in vitro BBB: pH 7.4
# Method: (§1) The permeability of peptides was assessed using a primary rat in vitro BBB model. […] Transendothelial electrical resistance (TEER) measurements were used to measure the resistance of tight junctions in our BBB model. For our experiments, we used only inserts with the TEER value ≥320 ± 20 Ώ cm^−2 that corresponded to an intact in vitro BBB model. Alternatively, the integrity of the in vitro rat BBB model was assessed by measuring the permeability of the paracellular compound Lucifer Yellow (LY). Lucifer Yellow was added to the well with the peptides.
# (§2) To test the permeability of selected peptides across in vitro BBB model, peptide transport to the abluminal compartment was quantified by ultra-high-performance liquid chromatography/mass spectrometry (UHPLC–MS/MS) method.
# (§3) As a negative control, we performed the permeability experiments with N–C reversed sequence peptides: [sequence] and [sequence].
# (§4) To test the effect of temperature on the transport of peptides across BBB, endothelial cells were incubated with peptides at 4°C to reduce cell metabolism which slows down endocytosis.
# (§5) Briefly, 4 Sprague–Dawley rats (200–250 g, 6 months old) were euthanized, and the whole brains were removed. Under sterile conditions, the brainstem and cerebellum were dissected, and the midbrain, white matter, and choroid plexus were removed. The remaining cortical tissue was cleaned from meninges on dry Whatman paper. The tissue was homogenized on ice in DMEM-F12 (PAA laboratories GmbH, Germany). The brain homogenate was centrifuged at 800× g for 10 min at 4 °C. The supernatant was aspirated, and the pellet was resuspended in pre-warmed digestion mix containing collagenase/dispase (Roche Diagnostics, Indianapolis, IN, USA) and DNase I (Sigma–Aldrich, St. Louis, MO, USA). The tissue was incubated with a prepared digestion mix at 37 °C for 30 min with gentle shaking. Digested tissue was centrifuged at 800× g for 10 min at 4 °C, and the pellet was resuspended in 20% bovine serum albumin (BSA, Sigma–Aldrich, St. Louis, MO). The tissue was centrifuged at 1500× g for 15 min at 4 °C to obtain pellet containing microvessels with a fraction of myelin and BSA on the top, which was centrifuged again. The microvessels were pooled and resuspended in pre-warmed digestion mix and digested for 15 min at 37 °C. The microvessels pellet was again centrifuged at 800× g for 10 min at 4 °C and washed with culture medium containing the serum. The microvessels were cultured in DMEM-F12 medium (PAA Laboratories GmbH, Germany) containing 15% plasma-derived serum (PDS) (First Link, UK), 2 mM L-glutamine (GE Healthcare, UK), BME vitamins (Sigma–Aldrich, St. Louis, MO), heparin (Sigma–Aldrich, St. Louis, MO) and 3 µM puromycine (Sigma–Aldrich, St. Louis, MO). After 7 days, cells were seeded on the upper chamber (apical compartment) of Transwell insert with a 0.4 µm pore size (Becton Dickinson, New Jersey, USA) pre-coated with 10 µg/cm^2 collagen type IV (Sigma–Aldrich, St. Louis, MO) and 5 µg/cm^2 fibronectin (Sigma–Aldrich, St. Louis, MO).
# [2] = test system: primary rat in vitro BBB model; experiment: Permeability of endothelium to Lucifer Yellow (BBB integrity); type: in vitro ADME; conditions: 10 µM Lucifer Yellow apical, added with the peptides; Ringer-HEPES pH 7.4; 37 °C; 5-60 min; fluorescence 428/536 nm
# Method: All incubations were performed at 37 °C.
# [3] = in vitro; conditions: Sprague-Dawley, rat, pH 7.4
# Method: as §1, §2, §3, §4, §5
Substance,permeability at 4 °C (37 °C: 100%) [1] [%],permeability reduced at 4 °C [1] [%],permeability coefficient (Pe) through in vitro BBB [1] [×10⁻⁶ cm/s],endothelial permeability coefficient (Pe) of LY [2],Papp A→B [3] [×10⁻⁶ cm/s]
GLHTSATNLYLH,79,20.5,0.33,–,–
HLYLNTASTHLG,–,–,0.75,–,–
Lucifer Yellow,–,–,–,around 11 × 10^−6 cm/s,–
VAARTGEIYVPW,69,30.5,–,–,1.5
WPVYIEGTRAAV,–,–,–,–,0.5
